# ChEMBL document CHEMBL1121522, “Binding specificities of adenosine aminohydrolase from calf intestinal mucosa with dialdehydes derived from hexofuranosyladenine nucleosides” (J Med Chem, 1980)
# Assays:
# [1] = target: T1, Adenosine deaminase (Bos taurus, UniProt P56658); assay: Inhibition constant against Adenosine deaminase was determined from calf intestinal mucosa
# T1 sequence (P56658 whole entry): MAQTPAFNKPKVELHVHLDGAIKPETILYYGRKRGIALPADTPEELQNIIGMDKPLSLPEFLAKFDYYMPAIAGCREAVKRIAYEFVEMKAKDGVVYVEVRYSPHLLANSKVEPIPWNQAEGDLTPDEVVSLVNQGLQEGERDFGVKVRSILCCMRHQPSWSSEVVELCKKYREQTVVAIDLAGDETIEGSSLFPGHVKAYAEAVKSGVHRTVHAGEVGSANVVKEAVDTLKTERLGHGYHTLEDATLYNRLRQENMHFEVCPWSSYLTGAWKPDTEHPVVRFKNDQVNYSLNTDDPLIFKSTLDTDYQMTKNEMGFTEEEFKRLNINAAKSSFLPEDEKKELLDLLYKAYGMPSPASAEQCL
# [2] = species: Bos taurus; assay: Kinetic constant (Vmax) against Adenosine Aminohydrolase was determined from calf intestinal mucosa; format: ADME; details: cattle, in vitro
# [3] = test system: adenosine aminohydrolase (adenosine deaminase); assay: Kinetic Constant (Km) against Adenosine Aminohydrolase was determined from calf intestinal mucosa; format: ADME, Bos taurus; details: cattle
Compound,Ki [1] [µM],Vmax [2] [µmol/min/mg],Km [3] [µM]
CC(O)[C@H](C=O)O[C@@H](C=O)n1cnc2c(N)ncnc21 (stereo partly drawn),370,0.41,140
C=C[C@@H](C=O)O[C@@H](C=O)n1cnc2c(N)ncnc21,50,,
C=C[C@H](C=O)O[C@H](C=O)n1cnc2c(N)ncnc21,7,,
CC(O)[C@@H](C=O)O[C@@H](C=O)n1cnc2c(N)ncnc21 (stereo partly drawn),430,0.46,350
